Experimental findings from patent publication US10588315B2, “Fungicidal compositions” (Syngenta Participations AG, priority 2012, dated 2020) are described below.

“And” between values parts separate entries of the source, which are not always exact repeats. Equal entries are not always repeated. Where two headings read alike, the source gives them in different places.

The test system of the assay is Alternaria solani. Put plainly: Alternaria solani / liquid culture. Type of assay: cell-based. Particulars: for inhibition at 0.0031 ppm: 1.001 0.0031 ppm. How it is done:
Mycelia fragments or conidia suspensions of a fungus, prepared either freshly from liquid cultures of the fungus or from cryogenic storage, were directly mixed into nutrient broth. DMSO solutions of the test compound (max. 10 mg/ml) was diluted with 0.025% Tween20 by factor 50 and 10 μl of this solution was pipetted into a microtiter plate (96-well format). The nutrient broth containing the fungal spores/mycelia fragments was then added to give an end concentration of the tested compound. The test plates were incubated in the dark at 24° C. and 96% rh. The inhibition of fungal growth was determined photometrically and visually after 2-4 days, depending on the pathosystem, and percent antifungal activity relative to the untreated check was calculated.
Conidia of the fungus from cryogenic storage were directly mixed into nutrient broth (PDB potato dextrose broth). After placing a (DMSO) solution of test compound into a microtiter plate (96-well format), the nutrient broth containing the fungal spores was added.

Turning to `CON(C(=O)c1cn(C)nc1C(F)F)C(C)Cc1c(Cl)cc(Cl)cc1Cl` (stereo not drawn) [Compound 1.001, 3-(difluoromethyl)-N-methoxy-1-methyl-N-[1-methyl-2-(2,4,6-trichlorophenyl)ethyl]pyrazole-4-carboxamide], the observed % activity by setting is: (1.001 0.0004 ppm) 11% and 10%; (1.001 0.0008 ppm) 24%; (1.001 0.0016 ppm) 40% and 46%. For the same compound, the inhibition at 0.0004 ppm (Alternaria solani, 1.001 0.0004 ppm, read-out: observed % activity) was 9%. The inhibition at 0.0063 ppm (Alternaria solani, 1.001 0.0063 ppm, read-out: observed % activity) worked out at 75%. The inhibition at 0.0008 ppm amounted to 4% (Alternaria solani, B1.2, 1.001 0.0008 ppm, read-out: observed % activity); 29% (Alternaria solani, B4.2, 1.001 0.0008 ppm, read-out: observed % activity); 3% (Alternaria solani, B5.2, 1.001 0.0008 ppm, read-out: observed % activity). In addition, the inhibition at 0.0016 ppm worked out at 32% (Alternaria solani, B1.2, 1.001 0.0016 ppm, read-out: observed % activity); 39% (Alternaria solani, B2.2, 1.001 0.0016 ppm, read-out: observed % activity); 45% (Alternaria solani, B3.2, 1.001 0.0016 ppm, read-out: observed % activity); 47% (Alternaria solani, B4.2, 1.001 0.0016 ppm, read-out: observed % activity); 36% (Alternaria solani, B5.2, 1.001 0.0016 ppm, read-out: observed % activity); 35% (Alternaria solani, B6.2, 1.001 0.0016 ppm, read-out: observed % activity). Further, where the note is “Alternaria solani, B9.2, 1.001 0.0016 ppm, read-out: observed % activity”, the inhibition at 0.0016 ppm was determined as 37%. Moreover, the inhibition at 0.0031 ppm (Alternaria solani, B1.2, read-out: observed % activity) was found to be 64%; the inhibition at 0.0031 ppm (Alternaria solani, B3.2, read-out: observed % activity) worked out at 66%; the inhibition at 0.0031 ppm (Alternaria solani, B4.2, read-out: observed % activity) is 73%; the inhibition at 0.0031 ppm (Alternaria solani, B5.2, read-out: observed % activity) turned out to be 75%; the inhibition at 0.0031 ppm (Alternaria solani, B6.2, read-out: observed % activity) came out at 71%; the inhibition at 0.0031 ppm (Alternaria solani, B9.2, read-out: observed % activity) stood at 67%.
